Results reported in ChEMBL document CHEMBL6153170 (J Med Chem, 2025).
Active and inactive are the calls of the source. The rule behind the calls is not given here.

How the values were obtained:
[1] = target: T1, Histone deacetylase 8 (Homo sapiens, UniProt Q9BY41); assay: Inhibition of C-terminal His-tagged recombinant full length human HDAC8 extracted from baculovirus infected Sf9 insect cells preincubated for 5 mins followed by substrate addition and measured after 30 mins by fluorescence microplate reader analysis
T1 sequence (Q9BY41 whole entry): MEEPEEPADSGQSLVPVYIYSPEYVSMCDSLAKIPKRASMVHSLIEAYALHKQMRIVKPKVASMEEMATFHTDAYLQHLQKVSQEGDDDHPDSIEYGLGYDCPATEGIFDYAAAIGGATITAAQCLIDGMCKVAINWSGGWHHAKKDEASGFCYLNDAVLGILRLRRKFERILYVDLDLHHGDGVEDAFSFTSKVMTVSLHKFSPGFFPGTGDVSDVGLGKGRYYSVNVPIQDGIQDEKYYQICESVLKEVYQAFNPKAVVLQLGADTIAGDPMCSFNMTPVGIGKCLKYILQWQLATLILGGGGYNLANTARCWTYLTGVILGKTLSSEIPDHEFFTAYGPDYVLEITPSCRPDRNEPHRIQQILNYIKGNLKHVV

[2] = tested on: Jurkat; assay: Cytotoxicity against human Jurkat T cells assessed as reduction in cell viability at 0.01 to 1 uM incubated for 48 hrs; type: functional, cell-based; details: dose 0.01-1 µM
[3] = tested on: Jurkat; assay: Cytotoxicity against human Jurkat T cells assessed as reduction in cell viability at 3.3 to 10 uM incubated for 48 hrs; type: functional, cell-based; details: dose 3.3-10 µM
[4] = target: Programmed cell death 1 ligand 1 (Mus musculus, UniProt Q9EP73); assay: Binding affinity to C-terminal 6His-tagged recombinant mouse PD-L1 (1 to 238 residues) expressed in HEK293 cells assessed as dissociation constant by ITC analysis
Sequence of Programmed cell death 1 ligand 1 (Q9EP73 whole entry, the tested form may be a part): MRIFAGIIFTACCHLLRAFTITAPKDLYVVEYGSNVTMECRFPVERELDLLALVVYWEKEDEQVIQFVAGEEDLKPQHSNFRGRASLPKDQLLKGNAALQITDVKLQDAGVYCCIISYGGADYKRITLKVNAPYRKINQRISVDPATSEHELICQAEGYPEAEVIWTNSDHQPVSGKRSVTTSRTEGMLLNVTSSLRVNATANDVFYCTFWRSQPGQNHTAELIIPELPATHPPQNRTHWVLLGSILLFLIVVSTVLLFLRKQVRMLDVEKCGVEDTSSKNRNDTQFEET

[5] = target: Programmed cell death 1 ligand 1 (Mus musculus) (UniProt Q9EP73); assay: Binding affinity to C-terminal 6His-tagged recombinant mouse PD-L1 (1 to 238 residues) expressed in HEK293 cells assessed as change in secondary structure conformation at 2 uM incubated for 30 mins by CD spectra analysis; type: cell-based
Sequence of Programmed cell death 1 ligand 1 (Mus musculus) (Q9EP73 whole entry, the tested form may be a part): as above

[6] = target: T2, Histone deacetylase 8 (Homo sapiens) (UniProt Q9BY41); assay: Inhibition of HDAC8 in human Jurkat T cells assessed as increase in acetylated SMC3 level incubated for 12 hrs by Western blot analysis; type: cell-based
T2 sequence (whole entry): T1 sequence (Q9BY41 whole entry)

[7] = target: Histone deacetylase 1 (Mus musculus) (UniProt O09106); assay: Inhibition of HDAC1 in mouse B16-F10 cells assessed as increase in acetylated H3 level incubated for 12 hrs by Western blot analysis; type: cell-based
Sequence of Histone deacetylase 1 (Mus musculus) (O09106 whole entry): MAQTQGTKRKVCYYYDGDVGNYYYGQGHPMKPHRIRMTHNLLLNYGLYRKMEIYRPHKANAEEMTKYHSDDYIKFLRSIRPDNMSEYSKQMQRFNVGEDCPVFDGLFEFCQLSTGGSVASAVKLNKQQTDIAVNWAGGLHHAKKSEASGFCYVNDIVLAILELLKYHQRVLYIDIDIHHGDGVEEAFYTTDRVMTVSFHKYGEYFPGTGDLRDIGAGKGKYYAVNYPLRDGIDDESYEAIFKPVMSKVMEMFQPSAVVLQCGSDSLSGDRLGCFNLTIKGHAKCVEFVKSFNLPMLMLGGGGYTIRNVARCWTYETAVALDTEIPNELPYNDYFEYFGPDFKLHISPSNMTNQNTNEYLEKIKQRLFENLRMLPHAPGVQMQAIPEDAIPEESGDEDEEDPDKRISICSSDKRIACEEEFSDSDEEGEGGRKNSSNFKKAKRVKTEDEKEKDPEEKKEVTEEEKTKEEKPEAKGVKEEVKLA

[8] = tested on: Jurkat; assay: Effect on Histone H3 protein level in human Jurkat T cells at 0.1 to 2 uM incubated for 12 hrs by Western blot analysis; type: functional, cell-based; details: dose 0.1-2 µM
[9] = MRT (0 to infinity) in male Sprague-Dawley rat at 2 mg/kg, iv measured after 48 hrs by triple quadrupole mass spectrometric analysis; type: ADME, organism-based; details: in vivo
[10] = Tmax in male Sprague-Dawley rat at 2 mg/kg, iv measured after 48 hrs by triple quadrupole mass spectrometric analysis; type: ADME, organism-based; details: in vivo
[11] = Apparent volume of distribution during terminal phase in male Sprague-Dawley rat at 2 mg/kg, iv measured after 48 hrs by triple quadrupole mass spectrometric analysis; type: ADME, organism-based; details: in vivo
[12] = AUC (0 to infinity) in male Sprague-Dawley rat at 10 mg/kg, po measured after 48 hrs by triple quadrupole mass spectrometric analysis; type: ADME, organism-based; details: in vivo
[13] = MRT (0 to t) in male Sprague-Dawley rat at 10 mg/kg, po measured after 48 hrs by triple quadrupole mass spectrometric analysis; type: ADME, organism-based; details: in vivo
[14] = Half-life in male Sprague-Dawley rat at 10 mg/kg, po measured after 48 hrs by triple quadrupole mass spectrometric analysis; type: ADME, organism-based; details: in vivo
[15] = Apparent clearance during terminal phase in male Sprague-Dawley rat at 10 mg/kg, po measured after 48 hrs by triple quadrupole mass spectrometric analysis; type: ADME, organism-based; details: in vivo
[16] = tested on: B16-F10; assay: Antitumor activity against mouse B16-F10 cells implanted in C57BL/6 mouse model assessed as reduction in tumor volume at 20 mg/kg/day, ip administered for 14 days; type: functional, organism-based; details: time 14.0 day
[17] = In vivo inhibition of PD-L1 in C57BL/6 mouse model implanted with mouse B16-F10 cells assessed as reduction in PD-L1 protein expression in tumor at 20 mg/kg/day, ip administered for 14 days by Western blot analysis relative to control; type: functional; details: C57BL/6, B16-F10, 336 h, time 14 day
[18] = In vivo inhibition of PD-L1 in C57BL/6 mouse model implanted with mouse B16-F10 cells assessed as reduction in PD-L1 protein expression in tumor at 20 mg/kg/day, ip co-administered with ACY-1215 for 14 days by Western blot analysis relative to control; type: functional; details: C57BL/6, B16-F10, 336 h, time 14 day
[19] = tested on: B16-F10; assay: Antitumor immunity activity against mouse B16-F10 cells implanted in C57BL/6 mouse model assessed as CD3+ CD8+ T cell percentage in tumor at 20 mg/kg/day, ip co-administered with ACY-1215 for 14 days by flow cytometric analysis (reference value: 0.52 %); type: functional; details: time 14 day
[20] = Toxicity in C57BL/6 mouse model implanted with mouse B16-F10 cells assessed as morphological changes in heart at 20 mg/kg/day, ip administered for 14 days by H and E staining based analysis; type: organism-based; details: in vivo, 336 h, time 14 day
[21] = Toxicity in C57BL/6 mouse model implanted with mouse B16-F10 cells assessed as morphological changes in liver at 20 mg/kg/day, ip administered for 14 days by H and E staining based analysis; type: organism-based; details: in vivo, 336 h, time 14 day
[22] = Toxicity in C57 mouse assessed as myelosuppression by measuring WBC level at 20 mg/kg/day, IG administered for 14 days by heat map analysis; type: organism-based; details: in vivo, po, 336 h, time 14 day
[23] = Toxicity in C57 mouse assessed as myelosuppression by measuring hemoglobin level at 20 mg/kg/day, IG administered for 14 days by heat map analysis; type: organism-based; details: in vivo, po, 336 h, time 14 day
[24] = Toxicity in C57 mouse assessed as myelosuppression by measuring MCV level at 20 mg/kg/day, IG administered for 14 days by heat map analysis; type: organism-based; details: in vivo, po, 336 h, time 14 day
[25] = Toxicity in C57 mouse assessed as myelosuppression by measuring MCHC level at 20 mg/kg/day, IG administered for 14 days by heat map analysis; type: organism-based; details: in vivo, po, 336 h, time 14 day
[26] = Toxicity in C57 mouse assessed as myelosuppression by measuring neutrophil level at 20 mg/kg/day, IG administered for 14 days by heat map analysis; type: organism-based; details: in vivo, po, 336 h, time 14 day
[27] = Toxicity in C57 mouse assessed as myelosuppression by measuring PDW level at 20 mg/kg/day, IG administered for 14 days by heat map analysis; type: organism-based; details: in vivo, po, 336 h, time 14 day
[28] = Toxicity in C57 mouse assessed as change in TBIL level at 20 mg/kg/day, IG administered for 14 days by heat map analysis; type: organism-based; details: in vivo, po, 336 h, time 14 day
[29] = Toxicity in C57 mouse assessed as change in GLO level at 20 mg/kg/day, IG administered for 14 days by heat map analysis; type: organism-based; details: in vivo, po, 336 h, time 14 day
[30] = tested on: HepG2; assay: cells; details: Homo sapiens, HepG2, 48 h
[31] = tested on: Jurkat; assay: cells; details: Homo sapiens, 72 h
[32] = tested on: HepG2; assay: cells; details: Homo sapiens, HepG2, 48 h; remark: listed apart in the source

IC50 [1]: > 10 µM | inhibition [6]: inactive | inhibition [7]: inactive | MRT inf [9]: 7.12 h | Tmax [10]: 4.8 min | Vz/F [11]: 8.99 L/kg | AUC [12]: 1076.36 µg·h/L | MRT last at 48 h [13]: 15.3 h | half-life [14]: 791 min | CLz/F [15]: 1.5 L/h/kg | IC50 [30]: 9.6 µM | IC50 [31]: > 10 µM | IC50 [32]: 3.4 µM
Compound: COc1nc(-c2cccc(-c3ccccc3)c2C)ccc1CNCCCCCCC(=O)NO
Activity [2]: inactive | Activity [3]: Active; Mild Cytotoxicity Observed | Kd [4]: 73 nM | Activity [5]: Active | Activity [8]: inactive | Activity [16]: Active | inhibition in vivo at 20 mg/kg/day [17]: ~68% | inhibition in vivo at 20 mg/kg/day [18]: ~62% | Activity [19]: 6.39% | Activity [20]: Non-toxic | Activity [21]: Non-toxic | Activity [22]: Non-toxic | Activity [23]: Non-toxic | Activity [24]: Non-toxic | Activity [25]: Non-toxic | Activity [26]: Non-toxic | Activity [27]: Non-toxic | Activity [28]: Non-toxic | Activity [29]: Non-toxic
